Measurements taken from patent US20260158070A1, “COMPOSITIONS AND METHODS FOR THE TREATMENT AND DIAGNOSIS OF CANCERS ASSOCIATED WITH SURFACE K-RAS” (UNIVERSITY OF MARYLAND, BALTIMORE, priority 2023, published 2026).

Experiments:
PANC-1 cells [1] = assay: Surface K-Ras availability after drug treatment (antibody 1 staining, MFI fold change); format: cell-based, human
Description: For 5-FU treatment, 100,000 PANC-1 cells were seeded into 24 well replicate plates. Cells were allowed to grow for 24 hours before 10 uM of 5-FU was added to the culture media. At 0-, 72-, and 120-hours cells were dislodged by using TryPLE express and resuspended in buffer containing PBS pH 7.2, 5% FCS. Cells were stained with human K-Ras antibody 1. All staining was performed at 10 μg/ml of antibody concentration and a volume of 100ul for 30 minutes on ice in V-bottom 96 well plates. Surface K-Ras staining was quantitated by measuring the MFI of cells mock treated or treated with 5-FU. The fold change was calculated by normalizing to the cells stained with isotype control.

PANC-1 cells [2] = assay: Human Fab-ZAP assay with MRTX1133 treatment (XTT); format: cell-based; details: 10 nM MRTX1133, 4.5 nM FabZAP, 5 days
From the text: In this example, we used the commercially available human Fab-ZAP assay (Advanced Targeting Systems Inc.), similar to Example 3, to test whether increasing surface K-Ras availability with MRTX1133 would potentiate killing with surface K-Ras targeted ADCs. For the experiments described below, we utilized the Fab-ZAP human kit [IT-51, KIT-51](atsbio.com/products/it51/), consisting of a chemical conjugate of goat […] monovalent antibody and the ribosome-inactivating protein, saporin. The antibodies used in this kit are affinity-purified polyclonal antibodies against both the heavy and light chain of […].
In one experiment, we tested whether increasing surface K-Ras availability with the small molecule inhibitor MRTX1133 would potentiate killing with surface K-Ras targeted ADCs. […] After 5 days incubation at 37 C in a 5% CO2 incubator, the percentage of viable cells compared to control wells with 4.5 nM FabZAP alone was determined using XTT assay according to the described protocol (Advanced Targeting Systems Inc cytotoxic assay protocol). […] Plates were then incubated at 37 C for at least 30 mins, and absorbance was read at 450 nm in a plate reader. This assay relies on detecting the number of viable cells remaining on the day of development as measured via cell metabolism of a colorimetric molecule within the developing reagents. […]

[3] = system: Panc-1 (K-Ras G12D mutant); assay: Growth and viability of pancreatic cancer cells cultured with R11.1.6 constructs (cell count, Trypan blue); format: cell-based, human; details: Panc-1, 20,000 cells/well, counted after 5 days of culture
Description: We next evaluated growth as well as viability of two pancreatic cancer cell lines driven by either G12D (Panc-1) or G12C (MiaPaca-2) mutant K-Ras in vitro. We plated 20,000 cells/well in Dulbecco's modified Eagles media (DMEM) with 10% fetal bovine serum (FBS) in a flat bottom 96 well plate and counted cells after 5 days of culture. Viability of cells were calculated based on Trypan blue dye exclusion method, where dead cells were blue due to uptake of the viability dye and live cells were not stained. Viability was measured by using Countess II FL cell viability and cell counter instrument by Invitrogen (ThermoFisher USA).
Further evaluation of growth inhibition was performed with control Sulfolobus solfataricus-derived proteins of similar molecular weight. […] We started with 200,000 cells in a 96 well V-bottom plate and used BD phosflow buffer set III (BD biosciences, catalog number 558050) to stabilize and optimize the phosphor moiety. Next, we stained the cells with anti-phospho-Akt (ser473, Clone D9E) PE conjugated (Cell Signaling Technologies, Catalog number 5315S) at a concentration of 0.125 ug/100 ul or anti-phosho-ERK1/2, PE conjugated (ThermoFisher USA catalog number 12-9109-42) at a concentration of 0.125 ug/100 ul. Cells were washed in FACS staining buffer and run in a LSR Fortessa II flow cytometer (BD Biosciences, USA). […]

[4] = system: human tumor cell line PANC-1; assay: Cell line-derived xenograft model of pancreatic cancer, in vivo ADC experiment; design: species or system Balb/c nude mice; details: 10 mg/kg i.v. QW × 2 weeks; gemcitabine 50 mg/kg i.p. BIW × 2 weeks
Description: DXd is a protease cleavable linker attached to a derivative of exatecan that acts as topoisomerase I inhibitor. DXd targeted to cancer cells by antibodies as an ADC has been used by FDA-approved […] is a conjugation of anti-Her-2 antibody and deruxtecan. DXd was conjugated via stochastic maleimide conjugation to interchain cysteines of the antibodies. The antibodies were first reduced using 10× molar equivalents of 10 mM TCEP at 37° C. for 90 minutes with shaking. The reduced antibodies were then conjugated with 10× molar equivalents of 10 mM DXd at room temperature for 2 hours. Conjugated antibodies were evaluated for the drug to antibody ratio (DAR) by reducing 10 μg of the crude conjugate with DTT at 37° C. for 30 minutes. The final DAR for the conjugated antibodies was 8. The multimeric state of the conjugated antibodies was evaluated by size exclusion chromatography and confirmed to be monomeric. Conjugated antibodies were purified from unconjugated DXd by dialysis against PBS, pH 5.6 with a 10K molecular-weight cut-off (MWCO) membrane for 48 hours. Next, we utilized a cell line-derived xenograft model of pancreatic cancer, where the human tumor cell line PANC-1 was implanted into Balb/c nude mice. The nude mouse is a naturally mutated mouse that lacks a thymus and hair (nude). […]

[5] = system: Panc-1 (pancreatic carcinoma carrying a K-RAS G12D mutation); assay: Fab-ZAP assay (saporin-linked secondary antibody, XTT); format: cell-based, human; details: 4.5 nM FabZAP, 5 days
From the text: (§1) Saporin is a 30 kDa ribosome-inhibitor which is unable to cross a cell membrane unaided (except at extremely high concentrations). However, when it is conjugated to an internalizing antibody, as previously described (DOI: 10.3390/toxins14030184), it can be used to kill target cells precisely and specifically with little to no off-target toxicity (See, for example, Lund et. al., mAbs, 6(4), 1038-1050, doi.org/10.4161/mabs.28207). […]
(§2) We specifically utilized Panc-1 (pancreatic carcinoma carrying a K-RAS G12D mutation), Capan-2 (pancreatic carcinoma carrying a K-RAS G12V mutation), AsPC-1 (pancreatic cell line carrying a K-RAS G12D mutation), LS180 (colon cancer cell line carrying a K-RAS G12D mutation), SW480 (colon cancer cell lines carrying a K-RAS G12V mutation), Capan-2 (pancreatic cancer cell line carrying a K-RAS G12V mutation), and two lung cancer cell lines (SK-LU-1 carrying a K-RAS G12D mutation and NCI-H2444 carrying a K-RAS G12V mutation). […] After 5 days incubation at 37 C in a 5% CO2 incubator, the percentage of viable cells compared to control wells with 4.5 nM FabZAP alone was determined using XTT assay according to the described protocol (Advanced Targeting Systems Inc cytotoxic assay protocol). […] Plates were then incubated at 37° C. for a minimum of 30 mins and absorbance was read at 450 nm in a plate reader. […]

[6] = system: MiaPaCa-2, a K-Ras G12C expressing pancreatic cancer cell line; assay: as above; format: cell-based; details: 4.5 nM FabZAP, 5 days
[7] = system: AsPC-1 (pancreatic cell line carrying a K-RAS G12D mutation); assay: as above; format: cell-based; details: 4.5 nM FabZAP, 5 days
From the text: as §1, §2

tumor cell = assay: Tumor cell killing by saporin alone without targeting antibodies (FIG. 3); format: cell-based
Description: FIG. 3 is a graphical representation of tumor cell killing, defined as % of cells alive compared to untreated control cultures with various concentrations of saporin alone without targeting antibodies. Representative of 3 replicates per group. Arrow points to 4.5 nM saporin. This 4.5 nM concentration, conjugated to the secondary antibody, is utilized in the antibody-drug conjugate (ADC) assays described in Example 3.
as §2

BXPC3 K-Ras^WT = assay: Fab-ZAP assay (saporin-linked secondary antibody, XTT); format: cell-based; details: 4.5 nM FabZAP, 5 days

O=c1[nH]cc(F)c(=O)[nH]1 [5-FU, fluorouracil]
availability of surface K-Ras (MFI fold change) (PANC-1 cells [1]; 10 uM, 0, 72 and 120 hours): increased the availability of surface K-Ras in Panc-1 cells

C#Cc1c(F)ccc2cc(O)cc(-c3ncc4c(N5CC6CCC(C5)N6)nc(OC[C@@]56CCCN5C[C@H](F)C6)nc4c3F)c12 [MRTX1133]
cell killing (% alive) (PANC-1 cells [2]): able to kill cells
availability of surface K-Ras (MFI fold change) (PANC-1 cells [1]; 10 nM, 0, 72 and 120 hours): increased the availability of surface K-Ras on PANC-1 cells
growth and viability [3]: R11.1.6-mediated inhibition of Panc-1 growth and viability was like the G12D inhibitor MRTX1133

Nc1ccn([C@@H]2O[C@H](CO)[C@@H](O)C2(F)F)c(=O)n1 [gemcitabine, Gemcitabine]
body weight [4]: demonstrated distress based on weight loss
tumor growth (tumor volume) [4]: slowed tumor growth over either ADC or antibody treatment

Saporin
cell-specific killing (% of cells alive) [5]: showed killing
cell-specific killing (% of cells alive) [6]: showed killing
cell-specific killing (% of cells alive) [7]: showed killing
toxicity of saporin without a targeting agent (tumor cell; 4.5 nM concentration used in the ADC assay): no toxicity is evident at the 4.5 nM concentration
concentration of saporin alone causing cell death (tumor cell; without targeting antibodies): ≥ 100 nM
cell-specific killing (% of cells alive) (BXPC3 K-Ras^WT): showed killing
